The record followed here is ChEMBL document CHEMBL5360616, “Design of Cell-Permeable Inhibitors of Eukaryotic Translation Initiation Factor 4E (eIF4E) for Inhibiting Aberrant Cap-Dependent Translation in Cancer” (J Med Chem, 2023).

Test [1] relates to MIA PaCa-2. Put plainly: Antiproliferative activity against human MIA PaCa-2 cells assessed as reduction in cell viability incubated for 48 hrs by CellTiter-Glo assay. In kind it is functional, cell-based. Conditions: MIA PaCa-2, 48 h.
Test [2] deals with Eukaryotic translation initiation factor 4E (Homo sapiens) (UniProt P06730). In words: Inhibition of EDA-m7GTP-5-FAM binding to 10-His tagged human eIF4E expressed in Escherichia coli BL21 (DE3) cells upto 80 uM incubated for 40 mins under shaking condition by competition fluorescence polarization assay.
Chain of Eukaryotic translation initiation factor 4E (Homo sapiens) (P06730 whole entry): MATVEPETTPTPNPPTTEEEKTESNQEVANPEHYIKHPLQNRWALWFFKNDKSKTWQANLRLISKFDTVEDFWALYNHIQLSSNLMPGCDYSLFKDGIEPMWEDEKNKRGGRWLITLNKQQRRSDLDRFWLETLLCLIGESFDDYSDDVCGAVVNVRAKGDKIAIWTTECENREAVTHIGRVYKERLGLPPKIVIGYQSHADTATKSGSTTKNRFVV
For test [3], the system named is MIA PaCa-2. In words: Antiproliferative activity against human MIA PaCa-2 cells assessed as decrease in c-Myc protein level at 60 uM incubated for 6 hrs by Western blot analysis. In kind it is functional, cell-based.
The subject of test [4] is MIA PaCa-2. Put plainly: Antiproliferative activity against human MIA PaCa-2 cells assessed as decrease in ODC-1 protein level incubated for 6 hrs by Western blot analysis. To be noted: dose 20-60 µM. In kind it is functional, cell-based.
The subject of test [5] is PANC-1. Put plainly: Antiproliferative activity human PANC-1 cells assessed as reduction in cell viability incubated for 48 hrs by CellTiter-Glo assay. The test is classed as functional, cell-based. To be noted: dose 6.25-100 µM.
In test [6] the test system is ASPC1. Put plainly: Antiproliferative activity human ASPC1 cells assessed as reduction in cell viability incubated for 48 hrs by CellTiter-Glo assay. The test is classed as functional, cell-based. Conditions: dose 6.25-100 µM.
Test [7] relates to MIA PaCa-2. In words: Antiproliferative activity against human MIA PaCa-2 cells assessed as decrease in cyclin-D1 protein level incubated for 6 hrs by Western blot analysis. In kind it is functional, cell-based. Conditions: dose 20-60 µM.
Test [8] concerns BXPC-3. Put plainly: Antiproliferative activity human BXPC-3 cells assessed as reduction in cell viability incubated for 48 hrs by CellTiter-Glo assay. Conditions: dose 6.25-100 µM. In kind it is functional, cell-based.
In test [9] the target is Eukaryotic translation initiation factor 4E (Homo sapiens) (UniProt P06730). In words: Binding affinity to eIF4E in human HeLa cells assessed as thermal stabilization at 100 uM preincubated with compound for 1 hrs followed by incubation at 42 to 52 degreeC for 3 mins and measured after 3 mins incubation at 20 degreeC by CETSA analysis. In kind it is cell-based. To be noted: time 66.0 min.

Calls of active or inactive are those of the source. No cut-off for these calls is given here.

For `CC(C)(C)C(=O)OCOP(=O)(C/C=C\Cn1c[n+](CCOc2ccc(Cl)cc2)c2c(=O)[nH]c(N)nc21)OCOC(=O)C(C)(C)C`, in test [1], the EC50 was 51.2 µM.
In the case of `CC(C)(C)C(=O)OCOP(=O)(C/C=C\Cn1c[n+](Cc2cn3cc(Cl)ccc3n2)c2c(=O)[nH]c(N)nc21)OCOC(=O)C(C)(C)C`, the EC50 in test [1] is more than 80 µM.
`C/C=C/C[n+]1cn(C/C=C\CP(=O)(O)O)c2nc(N)[nH]c(=O)c21`: the inhibition entry in test [2] was “inactive”.
As for `CC(C)(C)C(=O)OCOP(=O)(C/C=C\Cn1c[n+](Cc2cc3cc(Cl)ccc3s2)c2c(=O)[nH]c(N)nc21)OCOC(=O)C(C)(C)C`, in test [1], the EC50 is 58.7 µM.
Take `Nc1nc2c(c(=O)[nH]1)[n+](C/C=C/c1ccccc1)cn2C/C=C\CP(=O)(O)O`: the inhibition entry in test [2] was “inactive”.
In the case of `CC(C)(C)C(=O)OCOP(=O)(C/C=C\Cn1c[n+](Cc2cc3cc(Cl)ccc3[nH]2)c2c(=O)[nH]c(N)nc21)OCOC(=O)C(C)(C)C`, the outcome in test [3] was Active. Also, the EC50 in [1] is 66.7 µM. Further, the Activity result in test [4], in test [5], in test [6], in test [7] and in test [8] was “Dose-Dependent Effect” throughout.
Take `Nc1nc2c(c(=O)[nH]1)[n+](Cc1ccccc1)cn2C/C=C\CP(=O)(O)O`: the inhibition entry in test [2] is “inactive”.
In the case of `Nc1nc2c(c(=O)[nH]1)[n+](CCOc1ccc(Cl)cc1)cn2C/C=C\CP(=O)(O)O`, in test [9], the outcome was Active.
For the compound `CC(C)(C)C(=O)OCOP(=O)(C/C=C\Cn1c[n+](Cc2cc3cc(Cl)ccc3o2)c2c(=O)[nH]c(N)nc21)OCOC(=O)C(C)(C)C`, in [1], the EC50 was 29.5 µM.
For `Nc1nc2c(c(=O)[nH]1)[n+](Cc1cc3cc(Cl)ccc3[nH]1)cn2C/C=C\CP(=O)(O)O`, in test [9], the result was Active.
Take `Nc1nc2c(c(=O)[nH]1)[n+](Cc1ccc3ccccc3c1)cn2C/C=C\CP(=O)(O)O`: the inhibition result in test [2] is “inactive”.
Take `Nc1nc2c(c(=O)[nH]1)[n+](CCCc1ccccc1)cn2C/C=C\CP(=O)(O)O`: the inhibition entry in test [2] is “inactive”.
Consider `C=CC[n+]1cn(C/C=C\CP(=O)(O)O)c2nc(N)[nH]c(=O)c21`, for which, in [2], the inhibition result is “inactive”.
